Experiments:
Assay type in all cases: in vivo
[1] = test system: Echinochloa crus-galli var. crus-galli; assay: Test Example 4: herbicidal effect by soil treatment (symbol H); conditions: application herbicide amount 320 g/ha
Summary of the method: (§1)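 Seeds were sown in sterilized diluvial soil, covered with about 1.5 cm of soil, and the soil surface was sprayed with a water-diluted emulsion of the compound at a predetermined rate. Plants grew in a greenhouse at 25° C. to 30° C.; effects were scored visually 3 weeks after application.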

transplanted rice plant = assay: Test Example 1: effect on crop, application before weed generation in submerged conditions (symbol a); conditions: application herbicide amount 320 g/ha
Summary of the method: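 Alluvial soil pots flooded to 4 cm water, sown with Echinochloa oryzacola, Scirpus juncoides and Monochoria vaginalis, then transplanted with 2.5 leaf stage rice seedlings; pre-emergence application. Greenhouse 25° C. to 30° C.; scored 0–5 by herbicidal ratio 3 weeks after application.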

soybean = assay: Test Example 5: effect on crop by foliage application, plastic box (symbol d); conditions: 320 g/ha, 3 weeks after application
Summary of the method: (§2)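 In a plastic box 7 cm deep filled with sterilized diluvial soil, seeds of crops and weeds such as Digitaria ciliaris, Avena fatua and Amaranthus retroflexus are sown in spots and covered with about 1.5 cm of soil before greenhouse growth at 25–30° C.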

Chenopodium album = assay: Test Example 4: herbicidal effect by soil treatment (symbol O); conditions: application herbicide amount 320 g/ha
Summary of the method: as §1

corn = assay: Test Example 5: effect on crop by foliage application, plastic box (symbol c); conditions: 320 g/ha, 3 weeks after application
Summary of the method: as §2

Amaranthus retroflexus = assay: Test Example 5: herbicidal effect by foliage application, plastic box (symbol N); conditions: 320 g/ha, 3 weeks after application
Summary of the method: (§3)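 Visual herbicidal score, taken three weeks post-application, of seedlings sprayed on the foliage with water-diluted emulsion at a predetermined amount; plants were 14 days old, greenhouse-raised at 25° C. to 30° C.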

[2] = test system: Echinochloa oryzacola Vasing.; assay: Test Example 1: herbicidal activity, application before weed generation in submerged conditions (symbol A); conditions: application herbicide amount 320 g/ha
Summary of the method: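 Flooded alluvial soil (4 cm water) was mixed-sown with the three weed species, and 2.5-leaf rice seedlings were transplanted. On sowing day, a water-diluted emulsion at a predetermined rate was applied to the water surface. After 3 weeks in a 25–30 °C greenhouse, effect was scored 0–5.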

Veronica persica = assay: Test Example 4: herbicidal effect by soil treatment (symbol R); conditions: application herbicide amount 320 g/ha
Summary of the method: as §1

Setaria viridis = assay: Test Example 5: herbicidal effect by foliage application, plastic box (symbol G); conditions: 320 g/ha, 3 weeks after application
Summary of the method: as §3

Abutilon theophrasti = assay: Test Example 4: herbicidal effect by soil treatment (symbol M); conditions: application herbicide amount 320 g/ha
Summary of the method: as §1

Cyperus difformis = assay: Test Example 3: herbicidal effect by foliage application, Wagner pot (symbol E); conditions: application herbicide amount 320 g/ha
Summary of the method: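 Steps: fill pot with alluvial soil; add water to 0.1–0.5 cm depth; sow weed and rice seed; grow 14 days at 25–30 °C; spray diluted emulsion over the leaves; rate effect after 3 weeks.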

Monochoria vaginalis = assay: Test Example 2: herbicidal activity, application during weed generation in submerged conditions (symbol C); conditions: Table 23; application herbicide amount 320 g/ha; grade 0-5 by criteria of Test Example 1
Summary of the method: (§4)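 Submerged alluvial soil (4 cm) sown with mixed seed; greenhouse 25–30° C. 1–2 leaf: diluted emulsion onto water surface, preset dose. Visual score, 3 wk.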

Scirpus juncoides = assay: Test Example 2: herbicidal activity, application during weed generation in submerged conditions (symbol B); conditions: Table 23; application herbicide amount 320 g/ha; grade 0-5 by criteria of Test Example 1
Summary of the method: as §4

SMILES | Herbicidal effect grade, H: Echinochloa crus-galli var. crus-galli [1] | Effect grade on crop, a: transplanted rice plant (transplanted rice plant) | d: soybean, effect on crop (criteria of Test Example 1) (soybean) | Herbicidal effect grade, O: Chenopodium album (Chenopodium album) | c: corn, effect on crop (criteria of Test Example 1) (corn) | N: Amaranthus retroflexus, herbicidal effect (criteria of Test Example 1) (Amaranthus retroflexus) | Herbicidal effect grade, A: Echinochloa oryzacola Vasing. [2] | Herbicidal effect grade, R: Veronica persica (Veronica persica) | G: Setaria viridis, herbicidal effect (criteria of Test Example 1) (Setaria viridis) | Herbicidal effect grade, M: Abutilon theophrasti (Abutilon theophrasti) | herbicidal effect on E, grade 0-5 (Cyperus difformis) | Herbicidal effect grade, C: Monochoria vaginalis (Monochoria vaginalis) | Herbicidal effect grade, B: Scirpus juncoides (Scirpus juncoides) | H: Echinochloa crus-galli var. crus-galli, herbicidal effect grade [1] | O: Chenopodium album, herbicidal effect grade (Chenopodium album) | R: Veronica persica, herbicidal effect grade (Veronica persica) | M: Abutilon theophrasti, herbicidal effect grade (Abutilon theophrasti)
CC(=O)CC1CC(O)=C(c2c(C)cc(-c3ccc(C)cc3)cc2C)C1=O (stereo not drawn) [7-007] | 5 (Herbicidal ratio of 90% or more (almost completely withered)) | 5 (Herbicidal ratio of 90% or more (almost completely withered)) | 0 (Herbicidal ratio of 5% or lower (almost no effect)) | 0 (Herbicidal ratio of 5% or lower (almost no effect)) | 5 (Herbicidal ratio of 90% or more (almost completely withered)) | 0 (Herbicidal ratio of 5% or lower (almost no effect)) | 5 (Herbicidal ratio of 90% or more (almost completely withered)) | 0 (Herbicidal ratio of 5% or lower (almost no effect)) | 5 (Herbicidal ratio of 90% or more (almost completely withered)) | 0 (Herbicidal ratio of 5% or lower (almost no effect)) | 4 (Herbicidal ratio of 70% or higher and lower than 90%) | 3 (Herbicidal ratio of 40% or higher and lower than 70%) | 0 (Herbicidal ratio of 5% or lower (almost no effect)) |  |  |  | 
CON=C(C)CC1CC(OS(=O)(=O)N(C)C)=C(c2c(C)cc(-c3ccc(F)cc3)cc2C)C1=O (mixture of isomers) [6-060] |  | 5 (Herbicidal ratio of 90% or more (almost completely withered)) | 1 (Herbicidal ratio of 5% or higher and lower than 20%) |  | 5 (Herbicidal ratio of 90% or more (almost completely withered)) | 4 (Herbicidal ratio of 70% or higher and lower than 90%) | 5 (Herbicidal ratio of 90% or more (almost completely withered)) |  | 4 (Herbicidal ratio of 70% or higher and lower than 90%) |  | 5 (Herbicidal ratio of 90% or more (almost completely withered)) | 4 (Herbicidal ratio of 70% or higher and lower than 90%) | 4 (Herbicidal ratio of 70% or higher and lower than 90%) | 4 (Herbicidal ratio of 70% or higher and lower than 90%) | 0 (Herbicidal ratio of 5% or lower (almost no effect)) | 2 (Herbicidal ratio of 20% or higher and lower than 40%) | 0 (Herbicidal ratio of 5% or lower (almost no effect))
CON=C(C)CC1CC(OC(=O)SC(C)(C)C)=C(c2c(C)cc(-c3ccc(Cl)cc3)cc2C)C1=O (stereo not drawn) [6-082] |  | 5 (Herbicidal ratio of 90% or more (almost completely withered)) | 0 (Herbicidal ratio of 5% or lower (almost no effect)) |  | 5 (Herbicidal ratio of 90% or more (almost completely withered)) | 1 (Herbicidal ratio of 5% or higher and lower than 20%) | 5 (Herbicidal ratio of 90% or more (almost completely withered)) |  | 5 (Herbicidal ratio of 90% or more (almost completely withered)) |  | 5 (Herbicidal ratio of 90% or more (almost completely withered)) | 5 (Herbicidal ratio of 90% or more (almost completely withered)) | 3 (Herbicidal ratio of 40% or higher and lower than 70%) | 5 (Herbicidal ratio of 90% or more (almost completely withered)) | 0 (Herbicidal ratio of 5% or lower (almost no effect)) | 3 (Herbicidal ratio of 40% or higher and lower than 70%) | 2 (Herbicidal ratio of 20% or higher and lower than 40%)
COc1ccc(-c2cc(C)c(C3=C(O)CC(CC(C)=O)C3=O)c(C)c2)cc1 (stereo not drawn) [7-006] | 0 (Herbicidal ratio of 5% or lower (almost no effect)) | 2 (Herbicidal ratio of 20% or higher and lower than 40%) | 0 (Herbicidal ratio of 5% or lower (almost no effect)) | 0 (Herbicidal ratio of 5% or lower (almost no effect)) | 4 (Herbicidal ratio of 70% or higher and lower than 90%) | 0 (Herbicidal ratio of 5% or lower (almost no effect)) | 3 (Herbicidal ratio of 40% or higher and lower than 70%) | 0 (Herbicidal ratio of 5% or lower (almost no effect)) | 5 (Herbicidal ratio of 90% or more (almost completely withered)) | 0 (Herbicidal ratio of 5% or lower (almost no effect)) | 0 (Herbicidal ratio of 5% or lower (almost no effect)) | 0 (Herbicidal ratio of 5% or lower (almost no effect)) | 0 (Herbicidal ratio of 5% or lower (almost no effect)) |  |  |  | 
CC(=O)CC1CC(O)=C(c2c(C)cc(OCc3ccccc3)cc2C)C1=O (stereo not drawn) [7-018] | 0 (Herbicidal ratio of 5% or lower (almost no effect)) | 2 (Herbicidal ratio of 20% or higher and lower than 40%) | 0 (Herbicidal ratio of 5% or lower (almost no effect)) | 0 (Herbicidal ratio of 5% or lower (almost no effect)) | 1 (Herbicidal ratio of 5% or higher and lower than 20%) | 0 (Herbicidal ratio of 5% or lower (almost no effect)) | 2 (Herbicidal ratio of 20% or higher and lower than 40%) | 0 (Herbicidal ratio of 5% or lower (almost no effect)) | 4 (Herbicidal ratio of 70% or higher and lower than 90%) | 0 (Herbicidal ratio of 5% or lower (almost no effect)) | 3 (Herbicidal ratio of 40% or higher and lower than 70%) | 0 (Herbicidal ratio of 5% or lower (almost no effect)) | 0 (Herbicidal ratio of 5% or lower (almost no effect)) |  |  |  | 
CCc1cc(-c2ccc(Cl)cc2)cc(C)c1C1=C(O)CC(CC(C)=NOC)C1=O (stereo not drawn) [6-066] |  | 3 (Herbicidal ratio of 40% or higher and lower than 70%) | 3 (Herbicidal ratio of 40% or higher and lower than 70%) |  | 5 (Herbicidal ratio of 90% or more (almost completely withered)) | 3 (Herbicidal ratio of 40% or higher and lower than 70%) | 5 (Herbicidal ratio of 90% or more (almost completely withered)) |  | 5 (Herbicidal ratio of 90% or more (almost completely withered)) |  | 5 (Herbicidal ratio of 90% or more (almost completely withered)) | 0 (Herbicidal ratio of 5% or lower (almost no effect)) | 0 (Herbicidal ratio of 5% or lower (almost no effect)) | 5 (Herbicidal ratio of 90% or more (almost completely withered)) | 0 (Herbicidal ratio of 5% or lower (almost no effect)) | 3 (Herbicidal ratio of 40% or higher and lower than 70%) | 0 (Herbicidal ratio of 5% or lower (almost no effect))

From US11000033B2, “Ketone or oxime compound, and herbicide” (NISSAN CHEMICAL CORPORATION, priority 2014, dated 2021)
